Laboratory results: article PMC8151276, “An Integrated Approach toward NanoBRET Tracers for Analysis of GPCR Ligand Engagement” (Molecules, 2021)

Experiments:
Type in all cases: binding
GABBR2 = target: T1, GABBR2 (Homo sapiens, UniProt O75899); assay: NanoBRET screen HiBiT-GABBR2 in HEK293
T1 construct: purchased Promega (in-house HiBiT-GPCR construct library, NanoBRET)
T1 sequence (O75899 42-941): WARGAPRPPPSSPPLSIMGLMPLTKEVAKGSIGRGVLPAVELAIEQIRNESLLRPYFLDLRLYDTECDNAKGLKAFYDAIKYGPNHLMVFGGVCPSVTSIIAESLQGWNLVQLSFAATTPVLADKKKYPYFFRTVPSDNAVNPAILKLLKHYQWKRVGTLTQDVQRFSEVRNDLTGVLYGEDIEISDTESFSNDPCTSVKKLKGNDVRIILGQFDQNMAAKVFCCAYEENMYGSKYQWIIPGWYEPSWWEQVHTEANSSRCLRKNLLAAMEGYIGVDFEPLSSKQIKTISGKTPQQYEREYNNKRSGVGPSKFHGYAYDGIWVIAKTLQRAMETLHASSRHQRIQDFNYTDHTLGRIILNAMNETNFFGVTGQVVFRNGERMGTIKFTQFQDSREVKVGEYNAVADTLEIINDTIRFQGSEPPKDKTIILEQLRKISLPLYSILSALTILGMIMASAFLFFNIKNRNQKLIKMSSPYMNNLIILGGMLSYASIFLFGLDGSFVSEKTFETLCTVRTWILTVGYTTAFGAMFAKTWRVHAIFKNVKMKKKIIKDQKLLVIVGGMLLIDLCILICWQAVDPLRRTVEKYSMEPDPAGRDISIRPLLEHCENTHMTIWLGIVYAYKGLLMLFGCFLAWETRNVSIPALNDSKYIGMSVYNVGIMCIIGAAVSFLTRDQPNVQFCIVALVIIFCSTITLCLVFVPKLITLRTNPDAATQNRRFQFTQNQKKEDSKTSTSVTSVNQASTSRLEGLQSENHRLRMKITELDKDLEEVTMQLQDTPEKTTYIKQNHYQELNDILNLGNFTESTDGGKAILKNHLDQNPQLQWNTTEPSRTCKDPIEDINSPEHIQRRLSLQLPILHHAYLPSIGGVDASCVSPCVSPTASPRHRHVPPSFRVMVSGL
Experimental: (§1) Each tracer candidate was screened across the entire library of HiBiT-GPCR constructs using NanoBRET as the detection modality. As depicted in Figure 4A, the specificity of interactions was evaluated through decrease in BRET due to competitive displacement of a bound tracer by excess parental compound. Each tracer was analyzed for binding to each HiBiT-GPCR fusion in the absence and in the presence of competing parental compound. Briefly, HEK293 cells were transfected with HiBiT-GPCR constructs diluted into promoterless DNA to reduce expression and maximize translocation to the cell surface. Each tracer candidate was then screened at concentrations of 1 μM and 0.1 μM across cells expressing these fusions. Cells were treated for 1.5 h with tracer either alone or in the presence of 20 μM competing parental compound (i.e., control). BRET was measured upon addition of purified LgBiT and subsequent complementation with HiBiT genetically fused to a GPCR. The specificity of interactions was assessed through a decrease in BRET signal due to competitive displacement of the bound tracer. To further gauge the robustness of these interactions, the fold response over the control (i.e., BRETtracer/BRETcontrol) was calculated. We chose a 1.5-fold response, which translates to ≥7-fold signal over noise as the minimal threshold required to score an interaction as positive. […]. Below we highlight the screening results obtained for our exemplary fluorescent tracers based on Clozapine, Amitriptyline and AZD1283.
(§2) HiBiT-GPCR DNA constructs were diluted in 10 mM Tris pH 8 to a final concentration of 0.01 μg/μL, arrayed in 96-well plates and stored at −20 °C. For transfection, HEK293 cells were suspended in Opti-MEM (without phenol red) supplemented with 2% fetal bovine serum (Seradigm) and 100 units/mL penicillin–streptomycin (Gibco) at a final concentration of 220,000 cells/mL and dispensed into white 96-well plates at 90 μL/well. Subsequent transfections and screens were carried using an Agilent Bravo Automated Liquid Handling Platform. First, the 96-well HiBiT DNA arrays were diluted 25-fold in Opti-MEM (without serum or phenol red) to a final concentration of 0.0004 μg/μL and 20 μL of the diluted DNAs were transferred into new 96-well plates. Next, promoterless carrier DNA (1 μg/μL) was diluted 25-fold (0.04 μg/μL) and then dispensed into the diluted arrays at 20 μL/well. Following brief mixing, Viafect transfection reagent (Promega) diluted 16-fold into Opti-MEM was dispensed into the plates at 40 μL/well. After mixing by pipetting, plates were incubated for 10 min on the pipetting station deck. The DNA-transfection reagent complexes were then added to plates containing cells. To facilitate the screen, 10 μL of DNA-transfection reagent complexes were added in duplicates to the top 4 and bottom 4 rows, resulting in two identical 48-well arrays per plate. Plates with transfected cells were incubated for 18–20 h at 37 °C/5% CO2. A screen of each tracer across the entire library using two different concentrations requires duplicate plates of transfected cells. Depending on the number of tracers being screened, transfections can be scaled up using the same ratios. The next day, for each tracer, four 20× screening solutions in tracer dilution buffer (Promega) were prepared: two duplicates at final concentration of 20 μM and two duplicates at a final concentration of 2 μM. A competing unmodified compound was added to one of each duplicate at a final concentration of 400 μM. The four resulting solutions were diluted 4-fold in Opti-MEM without serum or phenol red to generate 5× solutions (5 µM and 0.5 µM tracer +/− 100 μM competing compound). To screen the library, a BioTek MultiFlo FX liquid dispenser was used to dispense 22.5 µL of tracer solution to the top 4 rows and 22.5 µL tracer + competing compound solution to the 4 bottom rows. Plates were briefly mixed on an orbital shaker and incubated for 1.5 h at room temperature. […]

C5AR2 = target: T2, C5AR2 (Homo sapiens, UniProt Q9P296); assay: NanoBRET screen HiBiT-C5AR2 in HEK293
T2 construct: purchased Promega (in-house HiBiT-GPCR construct library, NanoBRET)
T2 sequence (Q9P296 whole entry): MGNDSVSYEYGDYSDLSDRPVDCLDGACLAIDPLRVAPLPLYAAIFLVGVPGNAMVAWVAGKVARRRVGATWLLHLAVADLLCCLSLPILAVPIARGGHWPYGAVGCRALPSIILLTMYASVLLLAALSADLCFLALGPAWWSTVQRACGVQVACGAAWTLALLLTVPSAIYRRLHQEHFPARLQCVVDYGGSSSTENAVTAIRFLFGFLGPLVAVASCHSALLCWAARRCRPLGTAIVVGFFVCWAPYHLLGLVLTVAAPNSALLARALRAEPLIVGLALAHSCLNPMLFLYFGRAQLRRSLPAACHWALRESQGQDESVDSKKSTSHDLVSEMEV
Experimental: as §1, §2

SSTR4 = target: T3, SSTR4 (Homo sapiens, UniProt P31391); assay: NanoBRET screen HiBiT-SSTR4 in HEK293
T3 construct: purchased Promega (in-house HiBiT-GPCR construct library, NanoBRET)
T3 sequence (P31391 whole entry): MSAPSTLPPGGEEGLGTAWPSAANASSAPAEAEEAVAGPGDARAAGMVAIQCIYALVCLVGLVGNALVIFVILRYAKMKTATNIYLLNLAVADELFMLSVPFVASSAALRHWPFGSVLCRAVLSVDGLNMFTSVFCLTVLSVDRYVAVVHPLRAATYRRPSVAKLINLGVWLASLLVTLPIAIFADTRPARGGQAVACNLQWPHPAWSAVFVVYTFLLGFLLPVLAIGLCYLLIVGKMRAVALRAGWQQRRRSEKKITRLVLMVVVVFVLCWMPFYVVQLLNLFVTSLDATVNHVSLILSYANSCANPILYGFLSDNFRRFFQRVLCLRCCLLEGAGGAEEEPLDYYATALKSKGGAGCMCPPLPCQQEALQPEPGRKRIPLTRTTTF
Experimental: as §1, §2

CN(C)CCC=C1c2ccccc2CCc2ccc(C(=O)NCCNC(=O)CCOCCOCCOCCOCCNC(=O)CCc3ccc4n3[B-](F)(F)[N+]3=C(c5ccc[nH]5)C=CC3=C4)cc21 [Amitriptyline-a-2-NB590]
NanoBRET Fold Response (GABBR2; tracer at 0.1μM): 1.08 | NanoBRET Fold Response (GABBR2; tracer at 1μM): 0.95 | NanoBRET Fold Response (C5AR2; tracer at 0.1μM): 1.11 | NanoBRET Fold Response (C5AR2; tracer at 1μM): 1.01 | NanoBRET Fold Response (SSTR4; tracer at 0.1μM): 1.09 | NanoBRET Fold Response (SSTR4; tracer at 1μM): 1.09

Cc1nc2n(c(=O)c1CCN1CCC(c3noc4cc(F)ccc34)CC1)CCCC2OC(=O)NCCOCCOCCOCCOCCNC(=O)CCc1ccc2n1[B-](F)(F)[N+]1=C(c3ccc[nH]3)C=CC1=C2 (stereo not shown) [Risperidone-2-NB590]
NanoBRET Fold Response (GABBR2; GABBR2, tracer 0.1μM): 1.07 | NanoBRET Fold Response (GABBR2; GABBR2, tracer 1μM): 1.17 | NanoBRET Fold Response (C5AR2; C5AR2, tracer 0.1μM): 1.06 | NanoBRET Fold Response (C5AR2; C5AR2, tracer 1μM): 1.07 | NanoBRET Fold Response (SSTR4; SSTR4, tracer 0.1μM): 1.03 | NanoBRET Fold Response (SSTR4; SSTR4, tracer 1μM): 1.04

COc1ccc2[nH]c(-c3ccc(CNC(=O)CCOCCOCCOCCOCCNC(=O)CCc4ccc5n4[B-](F)(F)[N+]4=C(c6ccc[nH]6)C=CC4=C5)cc3)c(CCNC(C)=O)c2n1 [AzomelatoninICO9-2-NB590]
NanoBRET Fold Response (GABBR2; 0.1μM tracer): 0.87 | NanoBRET Fold Response (GABBR2; 1μM tracer): 1.13 | NanoBRET Fold Response (C5AR2; 0.1μM tracer): 1.13 | NanoBRET Fold Response (C5AR2; 1μM tracer): 0.89 | NanoBRET Fold Response (SSTR4; 0.1μM tracer): 0.84 | NanoBRET Fold Response (SSTR4; 1μM tracer): 0.98

COc1ccccc1N1CCN(CCCCN2C(=O)c3ccc(CNC(=O)CCOCCOCCOCCOCCNC(=O)CCc4ccc5n4[B-](F)(F)[N+]4=C(c6ccc[nH]6)C=CC4=C5)cc3C2=O)CC1 [NAN-190-2-NB590]
NanoBRET Fold Response (GABBR2; GABBR2, tracer 0.1μM): 0.95 | NanoBRET Fold Response (GABBR2; GABBR2, tracer 1μM): 1.04 | NanoBRET Fold Response (C5AR2; C5AR2, tracer 0.1μM): 1.02 | NanoBRET Fold Response (SSTR4; SSTR4, tracer 0.1μM): 1.02 | NanoBRET Fold Response (SSTR4; SSTR4, tracer 1μM): 1.00

O=C(CCc1ccc2n1[B-](F)(F)[N+]1=C(c3ccc[nH]3)C=CC1=C2)NCCOCCOCCNC(=O)OCCOCCN1CCN(C2=Nc3ccccc3Sc3ccccc32)CC1 [Quetiapine-a-2-NB590]
NanoBRET Fold Response (GABBR2; GABBR2, tracer 0.1μM): 1.06 | NanoBRET Fold Response (GABBR2; GABBR2, tracer 1μM): 0.91 | NanoBRET Fold Response (C5AR2; C5AR2, tracer 0.1μM): 1.04 | NanoBRET Fold Response (C5AR2; C5AR2, tracer 1μM): 0.77 | NanoBRET Fold Response (SSTR4; SSTR4, tracer 0.1μM): 0.99 | NanoBRET Fold Response (SSTR4; SSTR4, tracer 1μM): 0.83

O=C(CCOCCOCCOCCOCCNC(=O)CCc1ccc2n1[B-](F)(F)[N+]1=C(c3ccc[nH]3)C=CC1=C2)NCCCN1CCN(C2=Nc3cc(Cl)ccc3Nc3ccccc32)CC1 [Clozapine-a-2-NB590]
NanoBRET Fold Response (GABBR2; GABBR2, 0.1μM tracer): 1.07 | NanoBRET Fold Response (GABBR2; GABBR2, 1μM tracer): 0.80 | NanoBRET Fold Response (C5AR2; C5AR2, 0.1μM tracer): 0.93 | NanoBRET Fold Response (C5AR2; C5AR2, 1μM tracer): 1.21 | NanoBRET Fold Response (SSTR4; SSTR4, 0.1μM tracer): 1.11 | NanoBRET Fold Response (SSTR4; SSTR4, 1μM tracer): 1.20

CN(CCC=C1c2ccccc2CCc2ccccc21)C(=O)CCOCCOCCOCCOCCNC(=O)CCc1ccc2n1[B-](F)(F)[N+]1=C(c3ccc[nH]3)C=CC1=C2 [Amitriptyline-e-2-NB590]
NanoBRET Fold Response (GABBR2; tracer at 1μM): 1.08 | NanoBRET Fold Response (C5AR2; tracer at 1μM): 1.01
